Experimental data from ChEMBL document CHEMBL1157539, “Thousands of chemical starting points for antimalarial lead identification” (Nature, 2010).

Test system: Plasmodium falciparum
Assay: GSK_TCMDC: Inhibition of Plasmodium falciparum 3D7 in whole erythrocytes, using parasite LDH activity as an index of growth.
Assay type: functional, organism-based
Conditions: Plasmodium falciparum, 3D7

Row | SMILES | XC50 [nM]
1 | O=C(N[C@H](CC1CCCCC1)C(=O)NC1CCCc2ccccc21)c1ccc(O)c(-c2cccc([N+](=O)[O-])c2)c1 (stereo partly specified) | 610
2 | CCN(CC)CCN(Cc1ccc(-c2ccc(C(F)(F)F)cc2)nc1)C(=O)Cn1c(SCc2ccc(F)cc2)nc(=O)c2sccc21 | 840
3 | O=C(NC1c2ccccc2Oc2ccccc21)c1ccccc1O | 844
4 | Cn1cc(C2CCN(CCCCCNC(=O)/C=C/c3ccc(Cl)c(Cl)c3)CC2)c2cc(O)ccc21 | 943
5 | Cc1ccnc(NC(c2cccc(Cl)c2Cl)c2ccc3cccnc3c2O)c1 (stereo unspecified) | 1000
6 | NC(=O)c1cnc2cc(-c3ccoc3)ccc2c1Nc1ccc(NC(=O)Nc2ccccc2Cl)cc1 | 538
7 | CC(C)(C)OC(=O)NCCc1cccc(-c2c[nH]c3ncc(-c4cccc(NS(C)(=O)=O)c4)cc23)c1 | 684
8 | CN(C)Cc1ccc(-c2cccc(NC(=O)c3ccc(Cl)cc3)c2)cc1 | 900
9 | COc1ccc(CCNCCCCNCCc2ccc(OC)c3ccccc23)c2ccccc12 | 453
10 | Nc1c(Cl)cc(C(O)CNCCCCCOCCc2ccc3ccccc3n2)cc1Cl (stereo unspecified) | 1020
11 | Cc1[nH]c(C)c(-c2ccc(-c3ccc(OC(F)(F)F)cc3)nc2)c(=O)c1Br | 249
12 | O=C(Nc1ccccc1Cc1ccccc1)c1ccccc1[N+](=O)[O-] | 860
13 | O=C(Nc1ccc(-c2cccc(-c3nc4ccccc4[nH]3)c2)cc1)Nc1ccsc1 | 246
14 | COc1ccc2nccc([C@@H](O)CN3CCC(NCc4cc5cccc(OCc6ccccc6)c5[nH]4)CC3)c2c1 | 899
15 | COc1cccc(CCNCCCCCCNCCc2ccc(Cl)cc2)c1 | 1010
16 | O=C(Nc1cccc(CN2CCCN(Cc3ccsc3)CC2)c1)c1ccc(-c2ccccc2)cc1 | 1340
17 | CN1CCC(NCc2cccc(-c3nn(C)c4nc(NC5CCCC5)ncc34)c2)CC1 | 1020
18 | CCOc1ccc(NC(=O)c2ccc(CN3CCCN(Cc4cccc(O)c4)CC3)cc2)cc1 | 1310
19 | CO/N=C(\C)c1ccc2c(c1)CCN(CCC1CCC(NC(=O)c3cccc(-c4noc(C)n4)c3)CC1)CC2 (stereo unspecified) | 244
20 | N#Cc1ccc2c(c1)CCN(CCC1CCC(NC(=O)/C=C/c3c[nH]c4ccc(F)cc34)CC1)CC2 (stereo unspecified) | 692
21 | Cn1cc(Br)c(-c2cccc(Nc3ccnc4cc(-c5nccs5)ccc34)c2)n1 | 979
22 | Cc1ccc2nc(C)n(C3CCN(C(=O)Cc4ccc(F)c(F)c4)CC3)c2c1 | 474
23 | CCOC(=O)c1c[nH]c2c(ccc3ccccc32)c1=O | 157
24 | NS(=O)(=O)c1ccc(CNc2ccc3ncc(-c4ccc(Cl)cc4)n3n2)cc1 | 284

Row | SMILES | XC50 [nM]
25 | CCCCCOc1ccc(CC(C)NCC(O)c2cccc(Cl)c2)cc1 (stereo unspecified) | 653
26 | O=c1cc(NCCCNCc2cc3c(Cl)cc(Cl)cc3[nH]2)[nH]c2ccccc12 | 862
27 | COc1ccc2nccc([C@@H](O)CN3CCC(NCc4ccc5c(c4)NC(=O)CO5)CC3)c2c1 | 1660
28 | CC(=O)Nc1ccc(CN(Cc2cccc(OC(C)(C)C)c2)Cc2ccc3c(c2)OCCO3)cc1 | 136
29 | CCCc1cc(Cc2cnc(N)nc2N)cc(CCC)c1OCCCCCC(=O)OCC | 51.7
30 | Cc1ccc(CN2CCCN(Cc3cccc(C(=O)Nc4ccc(C(C)(C)C)cc4)c3)CC2)s1 | 1130
31 | CNCc1cccc2nc(-c3csc(Cc4cc(Cl)ccc4OCC(C)C)n3)[nH]c12 | 718
32 | Cc1cccc2nc(-c3ccc(-c4ccc(CNCc5cccc(N)c5)cc4)cc3)[nH]c12 | 565
33 | O=C(NCC1CCN(CCN2CCC(c3cn(CCO)c4ccccc34)CC2)CC1)c1ccc(-c2ccc(C(F)(F)F)cc2)cc1 | 438
34 | Cc1ccc(C2(C)CN(CCCOc3cccc(-c4ccc(C(=O)NC(C)C)cc4)c3)CCO2)cc1 (stereo unspecified) | 960
35 | CCOc1ccc(-c2nonc2NC(=O)c2ccccc2OC)cc1OCC | 241
36 | CN(CCCCCN1CCC(NC(=O)Nc2ccc(Oc3ccccc3)cc2)C1)C(=O)/C=C/c1ccc(Cl)c(Cl)c1 (stereo unspecified) | 421
37 | CCCN(c1ccc(O)c(CN2CCCCC2)c1)c1ccc([N+](=O)[O-])cn1 | 805
38 | COc1ccc(Cc2c(C)nc3nc(N)nc(N)c3c2C)cc1 | 284
39 | O=C(C=Cc1ccc(Cl)c(Cl)c1)NCCCCCN1CCCC(CCCNC(=O)C2CC2c2ccccc2)C1 (stereo unspecified) | 1130
40 | Nc1cccc(CNCc2cccc(-c3csc(-c4nc5ccccc5[nH]4)c3)c2)c1 | 685
41 | O=S(=O)(/C=C/c1ccccc1)N(Cc1ccc(-c2ccc(CNCCc3ccccn3)cc2)cc1)CC1CCCCN1 (stereo unspecified) | 742
42 | COc1ccc(-c2ccc(NC(=O)c3cccc(F)c3)cc2)cc1CNC(C)C | 808
43 | FC(F)(F)c1ccc(NC(=S)N2CCC(CN3CCC(c4c[nH]c5ccccc45)CC3)CC2)cc1 | 663
44 | CCCCc1ccc(-c2ccc3[nH]c(C)c(Br)c(=O)c3c2)cc1 | 105
45 | O=C(/C=C/c1ccc(Cl)c(Cl)c1)N1CCN(C(=O)Nc2cccc(C(F)(F)F)c2)CC1 | 704
46 | CS(=O)(=O)CCNCc1cccc(-c2cc3c(Nc4ccc5c(cnn5Cc5ccccc5)c4)ncnc3s2)c1 | 553
47 | O=C(Nc1ccc(Cl)cc1)c1cc(Cl)ccc1NC(=O)C1(c2ccc(Cl)cc2)CCCC1 | 1100
48 | Cc1ccc(NC(=O)c2cccc(N3CCN(c4ccncc4)CC3)c2)cc1F | 1300

Row | SMILES | XC50 [nM]
49 | Cc1c(C(=O)N2CCc3cc4nccc(N5CCN6CCC[C@H]6C5)c4cc32)cnn1-c1ccc(C#N)cc1 | 994
50 | CN1CCCN(c2ccnc3cc4c(cc23)N(C(=O)c2ccccc2Cl)CC4)CC1 | 1180
51 | O=C(/C=C/c1ccc(C(F)(F)F)cc1)NCCCCCN1CCN(C(=O)Nc2ccc(Cl)cc2)CC1 | 1010
52 | CCN(CCCN1CCCCC1)c1cc(C)nc(Nc2cccc(C(F)(F)F)c2)n1 | 289
53 | CCCC(C)NC(=O)/C=C/c1ccccc1-c1cccc(OC)c1 (stereo unspecified) | 1250
54 | O=C(NCc1ccc(Cl)cc1)c1ccc(CN2CCCN(CC3CCCCC3)CC2)cc1 | 1700
55 | OC(CNc1ccnc(Nc2ccc(Cl)cc2)n1)c1ccc(C(F)(F)F)cc1 (stereo unspecified) | 771
56 | O=C(/C=C/c1ccc(Cl)c(Cl)c1)NC1CCC(CN2CCC(c3cc4ccccc4[nH]3)CC2)CC1 (stereo unspecified) | 987
57 | Cc1cc2nc(-c3ccc(SCC(=O)Nc4ccc5c(c4)OCCO5)nc3)[nH]c2cc1C | 989
58 | COC1CCC(C(=O)Nc2ccc(-c3cccc(-c4nc5cccc(C)c5[nH]4)c3)cc2)CC1 (stereo unspecified) | 585
59 | Cc1ccc2sc(N(CCCn3ccnc3)C(=O)c3ccco3)nc2c1C | 966
60 | CCCCCCN1CCC(CNCc2cccc(Cl)c2)CC1 | 1220
61 | COc1ccc(CNC2Cc3ccccc3C2)cc1-c1ccc(S(=O)(=O)NCc2ccccc2)s1 | 832
62 | CC1=C(C(=O)Nc2ccccc2)C(c2ccc([N+](=O)[O-])cc2)n2ncc(C(=O)Nc3ccccc3)c2N1 (stereo unspecified) | 1240
63 | NCCNS(=O)(=O)c1ccc(-c2ccnc3[nH]c(-c4ccncc4)cc23)cc1 | 840
64 | N#Cc1ccc(-c2ccc(C(=O)NC3CCN(CCN4CCC(c5cn(CCOC6CCCCO6)c6ccccc56)CC4)CC3)cc2)cc1 (stereo unspecified) | 599
65 | CS(=O)(=O)Nc1ccc2[nH]cc(C3CC4CCC(C3)N4CC3CCC(NC(=O)/C=C/c4ccc(Cl)c(Cl)c4)CC3)c2c1 (stereo unspecified) | 872
66 | N#Cc1c(Cl)cccc1Oc1ccc(S(=O)(=O)N2CCC(CN3CCC(c4c[nH]c5ccccc45)CC3)CC2)cc1 | 745
67 | O=C(Nc1ccc([N+](=O)[O-])cc1Cl)c1cc(Br)cc(Cc2ccccc2)c1O | 1290
68 | CCOC(=O)c1c(SCc2cccc(F)c2F)[nH]c2ccccc2c1=O | 644
69 | OCCN1CCN(Cc2cccc(-c3ccc(-c4nc5cc(C(F)(F)F)ccc5[nH]4)s3)c2)CC1 | 86.7
70 | O=C(CN1CCCC1)Nc1cccc(C(=O)Nc2cccc(C(F)(F)F)c2)c1 | 510
71 | Fc1ccc2[nH]ccc(=NN=Cc3ccccc3Cl)c2c1 | 922
72 | Oc1ccc(CCCNc2nc(NCc3ccccc3-c3ccccc3)nc(NC3CCNCC3)n2)cc1 | 864

Row | SMILES | XC50 [nM]
73 | COc1ccc2c(=NN=Cc3cccc(C)n3)cc(-c3ccccc3)[nH]c2c1 | 751
74 | O=C(N[C@@H](Cc1ccccc1)C(=O)NC1CCCCCC1)c1ccc(O)c(-c2ccc(Cl)c(Cl)c2)c1 | 329
75 | Cc1ccccc1Nc1nc(Nc2ccccc2)c2ccccc2n1 | 998
76 | O=C(/C=C/c1ccc(Cl)c(Cl)c1)NCCCCCCN1CCCN(C(=O)Nc2cccc(C(F)(F)F)c2)CC1 | 793
77 | Cn1cnc(CCNC(=O)c2ccc(-c3cccc(-c4nc5cc(F)ccc5[nH]4)c3)cc2)c1 | 680
78 | COc1ccc(NC(=O)c2ccc(-c3nc(-c4cccc(C(F)(F)F)c4)cs3)cc2)cc1N1CCN(C)CC1 | 818
79 | Cn1ccnc1CNC(=O)c1ccc(-c2cccc(-c3nc4cc(C(F)(F)F)ccc4[nH]3)c2)cc1 | 723
80 | NC(=O)c1c(Cl)nc2ccccc2c1Cl | 960
81 | Cc1cc2nc(-c3cccc(C(=O)NC4CCN(Cc5ccccc5)CC4)c3)[nH]c2cc1C | 828
82 | Cc1ccc(Nc2nc(C)cc(N3CCN(CCc4ccccc4)CC3)n2)cc1 | 972
83 | Cc1n[nH]c2cc(Nc3ccnc(Nc4cccc(CN5CCOCC5)c4)n3)ccc12 | 1580
84 | Cc1csc(-c2ccc3[nH]cc(C4=CCN(C)CC4)c3c2)n1 | 754
85 | COc1ccc(C(=O)N2CCC3(CC2)C(=O)N(CC(=O)NCC2CCCCC2)CN3c2ccccc2)c(OC)c1 | 119
86 | CC(C)c1ccc(CN2CCC(CNC(=O)c3cc(-c4ccccc4F)cs3)C2)cc1 (stereo unspecified) | 993
87 | CCCc1cc(N2CCC(N(CC)CC)C2)nc(Nc2ccc(OC)cc2)n1 (stereo unspecified) | 168
88 | O=C(C=Cc1ccc(Cl)c(Cl)c1)NCCCCCN1CCC(CCNS(=O)(=O)c2ccc(Br)cc2)CC1 | 1120
89 | COc1ccc2nccc(NC(=O)C3(O)CCC(NCc4ccc5c(c4)NCCS5)CC3)c2n1 (stereo unspecified) | 598
90 | CN(C)C1CCN(CC#Cc2cc3ncnc(Nc4ccc(OCc5cccc(F)c5)c(Cl)c4)c3s2)CC1 | 887
91 | Cc1cc(-c2c[nH]c3ncc(-c4cccc5ncccc45)cc23)ccc1C(=O)O | 761
92 | O=C(Nc1ccc(CN2CCC(c3c[nH]c4ccc(O)cc34)CC2)cc1)c1ccc(-c2ccccc2)cc1 | 253
93 | COc1ccc(-c2cc(C(=O)N3CCc4ccccc43)c3ccccc3n2)cc1OC | 327
94 | NC1CCN(Cc2cccc(-c3cccc(-c4nc5ccccc5[nH]4)c3)c2)C1 (stereo unspecified) | 790
95 | Fc1cccc(Nc2nc(NCCc3ccc(Cl)cc3)nc(Nc3cccc(F)c3)n2)c1 | 1070
96 | COc1cc(Nc2nccc(N3CCC(NC(=O)Nc4cc(C)ccc4C)C3)n2)cc(OC)c1OC (stereo unspecified) | 1120
